Earlier results, collected in patent publication US20100240621A1, “TOPICAL PHARMACEUTICAL COMPOSITION FOR THE COMBINATION OF FUSIDIC ACID AND A CORTICOSTEROID” (priority 2007, published 2010).

Experiments:
[1] = system: oxacillin-sensitive staphylococcus aureus; conditions: at a concentration of 0.12 mg/L
[2] = system: oxacillin-resistant staphylococcus aureus; conditions: at a concentration of 2 mg/L
[3] = system: staphylococcus epidermidis; conditions: at 4 mg/L
[4] = solution, cream, and ointment formulations
[5] = in vivo

| applied dose entering the circulation [5] | Structure (SMILES) | oxacillin-sensitive staphylococcus aureus inhibited [1] | oxacillin-resistant staphylococcus aureus inhibited [2] | staphylococcus epidermidis inhibited [3] | concentration at which 90% of organisms inhibited (Peptococcus species) | concentration at which 90% of organisms inhibited (most Bacteroides species) | concentration at which 90% of organisms inhibited (Clostridium species) | concentration at which 90% of organisms inhibited (Propionibacterium Danes) | potency class by vasoconstrictor assay [4] |
| --- | --- | --- | --- | --- | --- | --- | --- | --- | --- |
|  | CC(=O)O[C@H]1C[C@@]2(C)[C@@H](C[C@@H](O)[C@H]3[C@@]4(C)CC[C@@H](O)[C@@H](C)[C@@H]4CC[C@@]32C)/C1=C(\CCC=C(C)C)C(=O)O [Fusidic acid] | 100% | At least 99% | 99% | ≤ 2 mg/L | ≤ 2 mg/L | ≤ 2 mg/L | ≤ 2 mg/L |  |
| less than 6% | CCC(=O)O[C@]1(C(=O)CCl)[C@@H](C)C[C@H]2[C@@H]3C[C@H](F)C4=CC(=O)C=C[C@]4(C)[C@@]3(F)[C@@H](O)C[C@@]21C [Halobetasol propionate] |  |  |  |  |  |  |  | super high-potency |
